In patent publication US10106558B2, “Azolobenzazine compounds, compositions comprising these compounds and their use for controlling invertebrate pests” (BASF SE, priority 2015, dated 2018):
Where two headings read alike, the source gives them in different places.

Legend:
Type in all cases: in vivo
[1] = test system: yellow fever mosquito (Aedes aegypti); assay: whole plant or invertebrate; settings: 48 h, larval mortality visually assessed after 2 days, read-out: mortality in comparison with untreated controls
Experimental: Example B1: Action on Yellow Fever Mosquito (Aedes aegypti)
For evaluating control of yellow fever mosquito (Aedes aegypti) the test unit consisted of 96-well-microtiter plates containing 200 μl of tap water per well and 5-15 freshly hatched A. aegypti larvae.
The active compounds were formulated using a solution containing 75% (v/v) water and 25% (v/v) DMSO. Different concentrations of formulated compounds or mixtures were sprayed onto the insect diet at 2.5 μl, using a custom built micro atomizer, at two replications.
After application, microtiter plates were incubated at 28+1° C., 80+5% RH for 2 days. Larval mortality was then visually assessed.

[2] = test system: tobacco budworm (Heliothis virescens); assay: Action on tobacco budworm, eggs on insect diet in 96-well microtiter plates; settings: 120 h, egg and larval mortality visually assessed after 5 days, read-out: mortality in comparison with untreated controls
Experimental: Example B6: Action on Tobacco Budworm (Heliothis virescens)
For evaluating control of tobacco budworm (Heliothis virescens) the test unit consisted of 96-well-microtiter plates containing an insect diet and 15-25 H. virescens eggs.
The compounds were formulated using a solution containing 75% v/v water and 25% v/v DMSO. Different concentrations of formulated compounds were sprayed onto the insect diet at 10 μl, using a custom built micro atomizer, at two replications.
After application, microtiter plates were incubated at about 28±1° C. and about 80±5% relative humidity for 5 days. Egg and larval mortality was then visually assessed.

[3] = test system: Southern Armyworm (Spodoptera eridania), 2nd instar larvae; assay: Action on southern armyworm 2nd instar larvae, sprayed lima bean plants; settings: 96 h, 4 days after treatment, read-out: mortality in comparison with untreated controls
Experimental: Example B10: Action on Southern Armyworm (Spodoptera eridania), 2nd Instar Larvae
The active compounds were formulated by a Tecan liquid handler in 100% cyclohexanone as a 10,000 ppm solution supplied in tubes. The 10,000 ppm solution was serially diluted in 100% cyclohexanone to make interim solutions. These served as stock solutions for which final dilutions were made by the Tecan in 50% acetone:50% water (v/v) into 10 or 20 ml glass vials. A nonionic surfactant (Kinetic®) was included in the solution at a volume of 0.01% (v/v). The vials were then inserted into an automated electrostatic sprayer equipped with an atomizing nozzle for application to plants/insects.
Lima bean plants (variety Sieva) were grown 2 plants to a pot and selected for treatment at the 1st true leaf stage. Test solutions were sprayed onto the foliage by an automated electrostatic plant sprayer equipped with an atomizing spray nozzle. The plants were dried in the sprayer fume hood and then removed from the sprayer. Each pot was placed into perforated plastic bags with a zip closure. About 10 to 11 armyworm larvae were placed into the bag and the bags zipped closed. Test plants were maintained in a growth room at about 25° C. and about 20-40% relative humidity for 4 days, avoiding direct exposure to fluorescent light (24 hour photoperiod) to prevent trapping of heat inside the bags. Mortality and reduced feeding were assessed 4 days after treatment, compared to untreated control plants.

[4] = test system: boll weevil (Anthonomus grandis); assay: Action on boll weevil, eggs on insect diet in 96-well microtiter plates; settings: 120 h, read-out: mortality in comparison with untreated controls
Experimental: Example B3: Action on Boll Weevil (Anthonomus grandis)
For evaluating control of boll weevil (Anthonomus grandis) the test unit consisted of 96-well-microtiter plates containing an insect diet and 5-10 A. grandis eggs.
(§1) The compounds were formulated using a solution containing 75% v/v water and 25% v/v DMSO. Different concentrations of formulated compounds were sprayed onto the insect diet at 5 μl, using a custom built micro atomizer, at two replications.
After application, microtiter plates were incubated at about 25±1° C. and about 75±5% relative humidity for 5 days. Egg and larval mortality was then visually assessed.

[5] = test system: green peach aphid (Myzus persicae) (mixed life stages); assay: Action on green peach aphid, liquid artificial diet under artificial membrane; settings: 72 h, read-out: mortality in comparison with untreated controls
Source text: Example B8: Action on Green Peach Aphid (Myzus persicae) (Mixed Life Stages)
For evaluating control of green peach aphid (Myzus persicae) through systemic means the test unit consisted of 96-well-microtiter plates containing liquid artificial diet under an artificial membrane.
The compounds were formulated using a solution containing 75% v/v water and 25% v/v DMSO. Different concentrations of formulated compounds were pipetted into the aphid diet, using a custom built pipetter, at two replications.
After application, 5-8 adult aphids were placed on the artificial membrane inside the microtiter plate wells. The aphids were then allowed to suck on the treated aphid diet and incubated at about 23±1° C. and about 50±5% relative humidity for 3 days. Aphid mortality and fecundity was then visually assessed.

[6] = test system: Diamond Back Moth (Plutella xylostella); assay: Action on diamond back moth, dipped cabbage leaves; settings: 3rd instar larvae, 72 hours after treatment, read-out: mortality in comparison with untreated controls
Experimental: Example B9: Action on Diamond Back Moth (Plutella xylostella)
The active compound is dissolved at the desired concentration in a mixture of 1:1 (vol:vol) distilled water:acetone. Surfactant (Kinetic® HV) is added at a rate of 0.01% (vol/vol). The test solution is prepared at the day of use.
Leaves of cabbage were dipped in test solution and air-dried. Treated leaves were placed in petri dishes lined with moist filter paper and inoculated with ten 3rd instar larvae. Mortality was recorded 72 hours after treatment. Feeding damages were also recorded using a scale of 0-100%.

[7] = test system: Mediterranean fruitfly (Ceratitis capitata); assay: Action on Mediterranean fruitfly, eggs on insect diet in microtiter plates; settings: 120 h, egg and larval mortality visually assessed after 5 days, read-out: mortality in comparison with untreated controls
Experimental: Example B5: Action on Mediterranean Fruitfly (Ceratitis capitata)
For evaluating control of Mediterranean fruitfly (Ceratitis capitata) the test unit consisted of microtiter plates containing an insect diet and 50-80 C. capitata eggs.
as §1
After application, microtiter plates were incubated at about […] and about 80+5% relative humidity for 5 days. Egg and larval mortality was then visually assessed.

[8] = test system: Orchid Thrips (Dichromothrips corbetti); assay: Action on orchid thrips, floral-immersion technique; settings: adult thrips, 72 hours after treatment, read-out: mortality in comparison with untreated controls
Experimental: Example B2: Action on Orchid Thrips (Dichromothrips Corbetti)
Dichromothrips corbettiadults used for bioassay were obtained from a colony maintained continuously under laboratory conditions. For testing purposes, the test compound is diluted in a 1:1 mixture of acetone:water (vol:vol), plus Kinetic® HV at a rate of 0.01% v/v.
Thrips potency of each compound was evaluated by using a floral-immersion technique. All petals of individual, intact orchid flowers were dipped into treatment solution and allowed to dry in Petri dishes. Treated petals were placed into individual re-sealable plastic along with about 20 adult thrips. All test arenas were held under continuous light and a temperature of about 28° C. for duration of the assay. After 3 days, the numbers of live thrips were counted on each petal. The percent mortality was recorded 72 hours after treatment.

[9] = test system: Silverleaf Whitefly (Bemisia argentifolii) (Adults); assay: Action on silverleaf whitefly adults, sprayed cotton plants; settings: 72 h, 3 days after treatment, read-out: mortality in comparison with untreated controls
Experimental: Example B4: Action on Silverleaf Whitefly (Bemisia argentifolii) (Adults)
The active compounds were formulated by a Tecan liquid handler in 100% cyclohexanone as a 10,000 ppm solution supplied in tubes. The 10,000 ppm solution was serially diluted in 100% cyclohexanone to make interim solutions. These served as stock solutions for which final dilutions were made by the Tecan in 50% acetone:50% water (v/v) into 5 or 10 ml glass vials. A nonionic surfactant (Kinetic®) was included in the solution at a volume of 0.01% (v/v). The vials were then inserted into an automated electrostatic sprayer equipped with an atomizing nozzle for application to plants/insects.
Cotton plants at the cotyledon stage (one plant per pot) were sprayed by an automated electrostatic plant sprayer equipped with an atomizing spray nozzle. The plants were dried in the sprayer fume hood and then removed from the sprayer. Each pot was placed into a plastic cup and about 10 to 12 whitefly adults (approximately 3-5 days old) were introduced. The insects were collected using an aspirator and a nontoxic Tygon® tubing connected to a barrier pipette tip. The tip, containing the collected insects, was then gently inserted into the soil containing the treated plant, allowing insects to crawl out of the tip to reach the foliage for feeding. Cups were covered with a reusable screened lid. Test plants were maintained in a growth room at about 25° C. and about 20-40% relative humidity for 3 days, avoiding direct exposure to fluorescent light (24 hour photoperiod) to prevent trapping of heat inside the cup. Mortality was assessed 3 days after treatment, compared to untreated control plants.

[10] = 800 ppm, egg and larval mortality visually assessed after 5 days
[11] = 800 ppm, adult aphids on treated aphid diet, 3 days

Cc1ccc(C(C)C)c(NC(=S)N/N=C/c2ccc3c(ccc4c3ncn4-c3ccc(OC(F)(F)F)cc3)n2)c1 [Compound C-5, 1-(2-isopropyl-5-methyl-phenyl)-3-[(E)-[3-[4-(trifluoromethoxy)phenyl]imidazo[4,5-f]quinolin-7-yl]methyleneamino]thiourea]
≥ 75%: mortality at 800 ppm [1] | mortality at 800 ppm [2] | mortality at 500 ppm [3] | mortality at 800 ppm [4, 10] | mortality at 800 ppm [5, 11] | mortality at 500 ppm [6] | mortality at 800 ppm [7] | mortality at 500 ppm [8]

CC(C)c1ccccc1/N=C1\SCC(=O)N1/N=C/c1ccc2c(ccc3c2ncn3-c2ccc(OC(F)(F)F)cc2)n1 [Compound C-8, (2Z)-2-(2-isopropylphenyl)imino-3-[(E)-[3-[4-(trifluoromethoxy)phenyl]imidazo[4,5-f]quinolin-7-yl]methyleneamino]thiazolidin-4-one]
≥ 75%: mortality at 800 ppm [1] | mortality at 500 ppm [9] | mortality at 800 ppm [2] | mortality at 500 ppm [3] | mortality at 800 ppm [4, 10] | mortality at 500 ppm [6] | mortality at 800 ppm [7] | mortality at 500 ppm [8]

CC(C)c1ccccc1N1/C(=N/N=C/c2ccc3c(ccc4c3ncn4-c3ccc(OC(F)(F)F)cc3)n2)SCC1(C)O (stereo not drawn) [Compound C-9, (2Z)-3-(2-isopropylphenyl)-4-methyl-2-[(E)-[3-[4-(trifluoromethoxy)phenyl]imidazo[4,5-f]quinolin-7-yl]methylenehydrazono]thiazolidin-4-ol]
≥ 75%: mortality at 800 ppm [1] | mortality at 500 ppm [9] | mortality at 800 ppm [2] | mortality at 500 ppm [3] | mortality at 800 ppm [4, 10] | mortality at 800 ppm [5, 11] | mortality at 500 ppm [6] | mortality at 800 ppm [7] | mortality at 500 ppm [8]

CC(OC(=O)Nc1ccc2c(ccc3c2ncn3-c2ccc(OC(F)(F)F)cc2)n1)c1ccc(Cl)cn1 (stereo not drawn) [Compound C-11, 1-(5-chloro-2-pyridyl)ethyl N-[3-[4-(trifluoromethoxy)phenyl]imidazo[4,5-f]quinolin-7-yl]carbamate]
≥ 75%: mortality at 800 ppm [1] | mortality at 800 ppm [4] | mortality at 800 ppm [5]

CC(C)c1ccccc1/N=C1\SCC(=O)N1/N=C/c1cnc2c(ccc3c2ncn3-c2ccc(OC(F)(F)F)cc2)c1 [Compound C-16, (2Z)-2-(2-isopropylphenyl)imino-3-[(E)-[3-[4-(trifluoromethoxy)phenyl]imidazo[4,5-h]quinolin-7-yl]methyleneamino]thiazolidin-4-one]
≥ 75%: mortality at 800 ppm [1] | mortality at 500 ppm [9] | mortality at 800 ppm [2] | mortality at 500 ppm [3] | mortality at 800 ppm [4, 10] | mortality at 500 ppm [6] | mortality at 800 ppm [7] | mortality at 500 ppm [8]

Cc1cccc(C)c1N1CCCS/C1=N/N=C/c1ccc2c(ccc3c2ncn3-c2ccc(OC(F)(F)F)cc2)n1 [Compound C-23, (E)-3-(2,6-dimethylphenyl)-N-[(E)-[3-[4-(trifluoromethoxy)phenyl]imidazo[4,5-f]quinolin-7-yl]methyleneamino]-1,3-thiazinan-2-imine]
≥ 75%: mortality at 800 ppm [1] | mortality at 500 ppm [9] | mortality at 800 ppm [2] | mortality at 500 ppm [3] | mortality at 800 ppm [4, 10] | mortality at 500 ppm [6] | mortality at 800 ppm [7] | mortality at 500 ppm [8]

Cc1cccc(C)c1N1CCS/C1=N/N=C/c1ccc2c(ccc3c2ncn3-c2ccc(OC(F)(F)F)cc2)n1 [Compound C-30, (E)-3-(2,6-dimethylphenyl)-N-[(E)-[3-[4-(trifluoromethoxy)phenyl]imidazo[4,5-f]quinolin-7-yl]methyleneamino]thiazolidin-2-imine]
≥ 75%: mortality at 800 ppm [2] | mortality at 800 ppm [4, 10] | mortality at 800 ppm [5, 11] | mortality at 500 ppm [6]
